≈ marks a conversion by molar mass, not a printed value.
Key:
Format in all cases: cell-based
Mucor spp. = assay: 3 day MIC, broth microdilution in 25% PDB; settings: 72 h
Procedure: (§1) Stock solutions (concentrations of between 4,000 μg/mL to 10,000 μg/mL; stored at −18° C.) of the above antifungals were prepared in dimethyl sulfoxide (DMSO). The stock solutions were further diluted into sterile 25% potato dextrose broth (PDB) so that the diluted solutions could be used for the antifungal susceptibility studies. This way, a typical microdilution study would reach a final ratio of about 0.5-2% v/v of DMSO in 25% PDB.
(§2) Spore inocula were prepared in sterile distilled water with 0.1% Tween® 20 (a polysorbate surfactant), and a hemocytometer was used to determine the spore density. Typically, the spore inoculum was prepared fresh prior to each study, and the inoculum was appropriately diluted to a final concentration of 0.4-1×10^5 spores/mL or colony-forming unit (CFU)/mL in each study. The spore suspension can be stored in a refrigerator at 4° C. for up to one week.
(§3) The minimal inhibitory concentrations (MICs) for individual antifungal agents were determined by following a modified broth microdilution protocol CLSI (Clinical and Laboratory Standards Institute) M38-A2 [Clinical and Laboratory Standards Institute (2008) Reference method for broth dilution antifungal susceptibility testing of filamentous fungi—2nd edition: Approved Standard M38-A2, CLSI, Wayne, Pa.] where 25% potato dextrose broth (PDB) was used as the medium. The studies were performed in flat bottom, 96-well microtiter plates (Greiner Bio-One, Frickenhausen, Germany).
(§4) Plates sealed with clear polyester film (VWR, Radnor, Pa.) were incubated at a temperature of about 25° C. The progress of fungal growth was monitored at 48 hours and 72 hours.

Aspergillus fumigatus = assay: 3 day MIC, broth microdilution in 25% PDB; settings: 72 h
Procedure: as §1, §2, §3, §4

Aspergillus niger = assay: 3 day MIC, broth microdilution in 25% PDB; settings: 72 h
Procedure: as §1, §2, §3, §4

Aspergillus flavus = assay: 3 day MIC, broth microdilution in 25% PDB; settings: 72 h
Procedure: as §1, §2, §3, §4

Rhizopus spp. = assay: 3 day MIC, broth microdilution in 25% PDB; settings: 72 h
Procedure: as §1, §2, §3, §4

Aureobasidium pullulans = assay: 3 day MIC, broth microdilution in 25% PDB; settings: 72 h
Procedure: as §1, §2, §3, §4

Fusarium oxysparum ST-33 = assay: 3 day MIC, broth microdilution in 25% PDB; settings: ST33, 72 h
Procedure: as §1, §2, §3, §4

Stachybotrys chartarum [1] = assay: Fungus resistance test after painting over fungal growth (defacement rating); settings: painting over contaminated surfaces; paints containing 100 μg/mL; after 7 days
From the text: In this series of experiments, fungal growth was allowed to cover a painted surface (surface containing 2 coats of the unaltered paint) to a defacement rating of 3-5, forming a ‘contaminated surface’. […] The paint application was extended approximately 1-2 cm beyond the edge of the disc onto the NSA medium. Each formulation used a separate brush to avoid cross contamination. The re-painted discs were placed back into the humid environment with elevated temperature to encourage fungal growth.
This test was used to evaluate the ability of paint films containing antifungal additives to prevent the re-emergence of fungal growth after painting over existing growth.
Olympic® Home interior flat latex paint (PPG Industries, Pittsburgh, Pa.) and Valspar® QuikHide White flat interior paint (Valspar Corporation, Minneapolis, Minn.) were used for the experiments in this study unless specified. Stock solutions of the antifungal additives of interest were prepared in reagent grade dimethyl sulfoxide (DMSO; Alfa Aesar, Ward Hill, Mass.). Additives were spiked (by adding appropriate amounts of the antifungal stock solutions) into the liquid paint at specified concentrations. Samples of additive-spiked paint were vigorously mixed with a vortex mixer for at least one minute to insure uniform dispersion of the additive in the paint. […] Studies that used other brands of paint followed the same protocol as described for those using the Olympic® Home interior flat latex paint.
Test surfaces were prepared in triplicate. In most cases, the tested conditions were repeated on a different date, again in triplicate. […] Two coats of paint were applied with a polyester brush to completely cover both faces of the filter paper disc, allowing at least four hours drying time between coats.
Nutrient-Salts Agar (NSA) media was prepared according to ASTM method G21-13 in 100×15 mm sterile polystyrene petri dishes (VWR® Radnor, Pa.) with a solidified agar layer from 3 to 6 mm (⅛ to ¼ in.) in depth. The agar was allowed to solidify for at least 24 hours before being used. The painted test filter paper discs were placed in the center of the agar plates in a biosafety hood while wearing clean nitrile gloves.
The paint coatings were evaluated against three representative fungi: Stachybotrys chartarum, Penicillium chrysogenum, and Alternaria alternata. […] Fungal isolates of Alternaria alternata and Penicillium chrysogenum were obtained from the Plant Pathology and Environmental Microbiology Department at Penn State University.
A spore suspension of each of these fungi was prepared by pouring a 20-mL portion of autoclaved deionized water containing 0.01% Tween® 20 onto a subculture of each fungal species. Spores were counted with the use of a hemocytometer (Hausser Scientific, Horsham, Pa.) under a microscope. Spore suspensions of Stachybotrys chartarum and Penicillium chrysogenum were diluted to 1×10^6 spores/mL with autoclaved deionized water. Spore suspensions of Alternaria alternata were used “as is” in the range of 200,000 to 400,000 spores/mL.
Painted test surfaces were inoculated with a spray bottle or with a cotton-tipped applicator. To inoculate the sample with a spray bottle, the spore suspension was sprayed twice on the painted test discs with a spray bottle that delivered approximately 0.14 g of fluid per spray. To inoculate the sample with a cotton-tipped applicator, an autoclaved cotton-tipped applicator was submerged in approximately 400 μL of the inoculum solution and applied evenly over the surface of the painted test surface twice.

Alternaria alternata = assay: 3 day MIC, broth microdilution in 25% PDB; settings: 72 h, 25% PDB, read-out: 3 day MIC
Procedure: as §1, §2
(§5) The studies were performed in flat bottom, 96-well microtiter plates (Greiner Bio-One, Frickenhausen, Germany).
as §4

Stachybotrys chartarum [2] = assay: 3 day MIC, broth microdilution in 25% PDB; settings: 72 h, 25% PDB, read-out: 3 day MIC
Procedure: as §1, §2, §5, §4

[3] = test system: Penicillium brevicompactum; assay: 3 day MIC, broth microdilution in 25% PDB; settings: 72 h, 25% PDB, read-out: 3 day MIC
Procedure: as §1, §2, §5, §4

Penicillium corylophilum = assay: 3 day MIC, broth microdilution in 25% PDB; settings: 72 h, 25% PDB, read-out: 3 day MIC
Procedure: as §1, §2, §5, §4

Penicillium chrysogenum = assay: 3 day MIC, broth microdilution in 25% PDB; settings: 72 h, 25% PDB, read-out: 3 day MIC
Procedure: as §1, §2, §5, §4

Penicillium purpurogenum = assay: 3 day MIC, broth microdilution in 25% PDB; settings: 72 h; Penicillium purpurogenum; 25% PDB; read-out: 3 day MIC
Procedure: as §1, §2, §5, §4

Compound | MIC (Mucor spp.) | MIC (Aspergillus fumigatus) | MIC (Aspergillus niger) | MIC (Aspergillus flavus) | MIC (Rhizopus spp.) | MIC (Aureobasidium pullulans) | MIC (Fusarium oxysparum ST-33) | ability to inhibit Stachybotrys chartarum re-emergence on the surfaces (Stachybotrys chartarum [1]) | MIC (Alternaria alternata) | MIC (Stachybotrys chartarum [2]) | MIC [3] | MIC (Penicillium corylophilum) | MIC (Penicillium chrysogenum) | MIC (Penicillium purpurogenum)
Nc1ccc2c(c1)COB2O [Compound B6, 5-Amino-1,3-dihydro-2,1-benzoxaborol-1-ol] | > 64 µg/mL | > 64 µg/mL | > 64 µg/mL | > 64 µg/mL | > 64 µg/mL | > 64 µg/mL | > 64 µg/mL | very little ability to inhibit | 200 µg/mL (≈ 1340 µM) | 64 µg/mL (≈ 430 µM) | – | – | – | –
Nc1ccc2c(c1)B(O)OCC2 [Compound B7, 7-amino-3,4-dihydro-1H-2,1-benzoxaborinin-1-ol] | – | – | – | – | – | – | – | very little ability to inhibit | > 200 µg/mL | 25 µg/mL (≈ 153 µM) | – | – | – | –
O=C(O)c1ccc2c(c1)COB2O [Compound B10, 1-hydroxy-1,3-dihydro-2,1-benzoxaborole-5-carboxylic acid] | – | – | – | – | – | – | – | – | 200 µg/mL (≈ 1120 µM) | 100 µg/mL (≈ 562 µM) | > 200 µg/mL | > 200 µg/mL | > 200 µg/mL | > 200 µg/mL
N#Cc1ccc2c(c1)COB2O [Compound B11, 1-hydroxy-1,3-dihydro-2,1-benzoxaborole-5-carbonitirile] | – | – | – | – | – | – | – | – | 100 µg/mL (≈ 629 µM) | 12.5 µg/mL (≈ 78.6 µM) | 50 µg/mL (≈ 315 µM) | 100 µg/mL (≈ 629 µM) | 100 µg/mL (≈ 629 µM) | 25 µg/mL (≈ 157 µM)

From patent US10160867B2, “Benzoxaborole-containing coating resistant to cellulose-supportable fungus” (THE PENN STATE RESEARCH FOUNDATION, priority 2015, dated 2018)
